# Source: ChEMBL document CHEMBL1212752, “Efficacy of posaconazole in a murine disseminated infection by Candida tropicalis” (2010)
# Calls of active or inactive are those of the source. The rule behind the calls is not given here.
# Experiments:
# Candida tropicalis [1] = assay: Antifungal activity against Candida tropicalis FMR 10236 assessed as compound concentration causing =>99% reduction in microbial growth; format: functional
# Candida tropicalis [2] = assay: Antifungal activity against Candida tropicalis FMR 10235 assessed as inhibition of growth by broth dilution method; format: functional
# Candida tropicalis [3] = assay: Antifungal activity against Candida tropicalis FMR 9726 infected in immunosuppressed OF1 mouse assessed as prolongation of mouse survival at 50 mg/kg, po qd for 5 days; format: functional, organism-based; set-up: dose 50 mg/kg
# Candida tropicalis [4] = assay: Antifungal activity against Candida tropicalis FMR 10231 assessed as compound concentration causing =>99% reduction in microbial growth; format: functional
# Candida tropicalis [5] = assay: Antifungal activity against Candida tropicalis FMR 10232 assessed as compound concentration causing =>99% reduction in microbial growth; format: functional
# Candida tropicalis [6] = assay: Antifungal activity against Candida tropicalis FMR 9727 infected in immunosuppressed OF1 mouse assessed as prolongation of mouse survival at 50 mg/kg, po qd for 5 days; format: functional, organism-based; set-up: dose 50 mg/kg
# Candida tropicalis [7] = assay: Antifungal activity against Candida tropicalis FMR 10239 infected in immunosuppressed OF1 mouse assessed as reduction in fungal tissue burden in mouse spleen at 25 mg/kg, po bid for 5 days; format: functional, organism-based; set-up: dose 25 mg/kg
# Candida tropicalis [8] = assay: Antifungal activity against Candida tropicalis FMR 9726 infected in immunosuppressed OF1 mouse assessed as prolongation of mouse survival at 25 mg/kg, po bid for 5 days; format: functional, organism-based; set-up: dose 25 mg/kg
# Candida tropicalis [9] = assay: Antifungal activity against Candida tropicalis FMR 8896 assessed as inhibition of growth by broth dilution method; format: functional
# Candida tropicalis [10] = assay: Antifungal activity against Candida tropicalis FMR 8897 assessed as compound concentration causing =>99% reduction in microbial growth; format: functional
# Candida tropicalis [11] = assay: Antifungal activity against Candida tropicalis FMR 8895 infected in immunosuppressed OF1 mouse assessed as reduction in fungal tissue burden in mouse kidney at 25 mg/kg, po bid for 5 days; format: functional, organism-based; set-up: dose 25 mg/kg
# Candida tropicalis [12] = assay: Antifungal activity against Candida tropicalis FMR 9726 infected in immunosuppressed OF1 mouse assessed as reduction in fungal tissue burden in mouse spleen at 50 mg/kg, po qd for 5 days; format: functional, organism-based; set-up: dose 50 mg/kg
# Candida tropicalis [13] = assay: Antifungal activity against Candida tropicalis FMR 9727 assessed as compound concentration causing =>99% reduction in microbial growth; format: functional
# Candida tropicalis [14] = assay: Antifungal activity against Candida tropicalis FMR 9726 assessed as compound concentration causing =>99% reduction in microbial growth; format: functional
# Candida tropicalis [15] = assay: Antifungal activity against Candida tropicalis FMR 8895 infected in immunosuppressed OF1 mouse assessed as reduction in fungal tissue burden in mouse kidney at 50 mg/kg, po qd for 5 days; format: functional, organism-based; set-up: dose 50 mg/kg
# Candida tropicalis [16] = assay: Antifungal activity against Candida tropicalis FMR 10239 infected in immunosuppressed OF1 mouse assessed as reduction in fungal tissue burden in mouse kidney at 25 mg/kg, po bid for 5 dayss; format: functional, organism-based; set-up: dose 25 mg/kg
# Candida tropicalis [17] = assay: Antifungal activity against Candida tropicalis FMR 10234 assessed as compound concentration causing =>99% reduction in microbial growth; format: functional
# Candida tropicalis [18] = assay: Antifungal activity against Candida tropicalis FMR 9726 infected in immunosuppressed OF1 mouse assessed as reduction in fungal tissue burden in mouse spleen at 25 mg/kg, po bid for 5 days; format: functional, organism-based; set-up: dose 25 mg/kg
# Candida tropicalis [19] = assay: Antifungal activity against Candida tropicalis FMR 10238 assessed as compound concentration causing =>99% reduction in microbial growth; format: functional
# Candida tropicalis [20] = assay: Antifungal activity against Candida tropicalis FMR 10231 assessed as inhibition of growth by broth dilution method; format: functional
# Candida tropicalis [21] = assay: Antifungal activity against Candida tropicalis FMR 8898 assessed as compound concentration causing =>99% reduction in microbial growth; format: functional
# Candida tropicalis [22] = assay: Antifungal activity against Candida tropicalis FMR 10239 assessed as compound concentration causing =>99% reduction in microbial growth; format: functional
# Candida tropicalis [23] = assay: Antifungal activity against Candida tropicalis FMR 10241 assessed as compound concentration causing =>99% reduction in microbial growth; format: functional
# Candida tropicalis [24] = assay: Antifungal activity against Candida tropicalis FMR 10236 assessed as inhibition of growth by broth dilution method; format: functional
# Candida tropicalis [25] = assay: Antifungal activity against Candida tropicalis FMR 10235 assessed as compound concentration causing =>99% reduction in microbial growth; format: functional
# Candida tropicalis [26] = assay: Antifungal activity against Candida tropicalis FMR 8895 infected in immunosuppressed OF1 mouse assessed as reduction in fungal tissue burden in mouse spleen at 25 mg/kg, po bid for 5 days; format: functional, organism-based; set-up: dose 25 mg/kg
# Candida tropicalis [27] = assay: Antifungal activity against Candida tropicalis FMR 10239 infected in immunosuppressed OF1 mouse assessed as prolongation of mouse survival at 50 mg/kg, po qd for 5 days; format: functional, organism-based; set-up: dose 50 mg/kg
# Candida tropicalis [28] = assay: Antifungal activity against Candida tropicalis FMR 10237 infected in immunosuppressed OF1 mouse assessed as reduction in fungal tissue burden in mouse kidney at 25 mg/kg, po bid for 5 days; format: functional, organism-based; set-up: dose 25 mg/kg
# Candida tropicalis [29] = assay: Antifungal activity against Candida tropicalis FMR 8895 infected in immunosuppressed OF1 mouse assessed as prolongation of mouse survival at 25 mg/kg, po bid for 5 days; format: functional, organism-based; set-up: dose 25 mg/kg
# Candida tropicalis [30] = assay: Antifungal activity against Candida tropicalis FMR 9727 infected in immunosuppressed OF1 mouse assessed as reduction in fungal tissue burden in mouse spleen at 25 mg/kg, po bid for 5 days; format: functional, organism-based; set-up: dose 25 mg/kg
# Candida tropicalis [31] = assay: Antifungal activity against Candida tropicalis FMR 9727 infected in immunosuppressed OF1 mouse assessed as reduction in fungal tissue burden in mouse spleen at 50 mg/kg, po qd for 5 days; format: functional, organism-based; set-up: dose 50 mg/kg
# Candida tropicalis [32] = assay: Antifungal activity against Candida tropicalis FMR 9727 assessed as inhibition of growth by broth dilution method; format: functional
smiles,measurement,setting,value
CC[C@@H]([C@H](C)O)n1ncn(-c2ccc(N3CCN(c4ccc(OC[C@@H]5CO[C@@](Cn6cncn6)(c6ccc(F)cc6F)C5)cc4)CC3)cc2)c1=O [POSACONAZOLE],MFC,Candida tropicalis [1],> 16 µg/mL
same,MIC50,Candida tropicalis [2],0.125 µg/mL
same,Activity,Candida tropicalis [3],Active
same,MFC,Candida tropicalis [4],> 16 µg/mL
same,MFC,Candida tropicalis [5],> 16 µg/mL
same,Activity,Candida tropicalis [6],Active
same,Activity,Candida tropicalis [7],Active
same,Activity,Candida tropicalis [8],Active
same,MIC50,Candida tropicalis [9],0.125 µg/mL
same,MFC,Candida tropicalis [10],> 16 µg/mL
same,Activity,Candida tropicalis [11],inactive
same,Activity,Candida tropicalis [12],Active
same,MFC,Candida tropicalis [13],> 16 µg/mL
same,MFC,Candida tropicalis [14],> 16 µg/mL
same,Activity,Candida tropicalis [15],inactive
same,Activity,Candida tropicalis [16],Active
same,MFC,Candida tropicalis [17],> 16 µg/mL
same,Activity,Candida tropicalis [18],Active
same,MFC,Candida tropicalis [19],> 16 µg/mL
same,MIC50,Candida tropicalis [20],0.06 µg/mL
same,MFC,Candida tropicalis [21],> 16 µg/mL
same,MFC,Candida tropicalis [22],1 µg/mL
same,MFC,Candida tropicalis [23],> 16 µg/mL
same,MIC50,Candida tropicalis [24],0.06 µg/mL
same,MFC,Candida tropicalis [25],> 16 µg/mL
same,Activity,Candida tropicalis [26],inactive
same,Activity,Candida tropicalis [27],Active
same,Activity,Candida tropicalis [28],Active
same,Activity,Candida tropicalis [29],Active
same,Activity,Candida tropicalis [30],Active
same,Activity,Candida tropicalis [31],Active
same,MIC50,Candida tropicalis [32],< 0.03 µg/mL
